Results on two compounds are retold here after US20210060033A1, “ORALLY ADMINISTERED COMBINATIONS OF BETA-LACTAM ANTIBIOTICS AND AVIBACTAM DERIVATIVES FOR TREATING BACTERIAL INFECTIONS” (priority 2019, published 2021).

The conditions of data set [1]: Sprague-Dawley rats; cited from earlier work.
For data set [2], the system named is pooled Enterobacteriaceae isolates. Briefly: Pharmacokinetic-pharmacodynamic analyses (Hill-type models) of the 400 mg ceftibuten dose-ranging studies. The data set is classed as cell-based. The following applies: 400 mg of ceftibuten, 24 hours. The protocol:
Data from the avibactam dose-ranging studies, in combination with 400 mg q8h of ceftibuten, were evaluated using Hill models and non-linear least squares regression. All data was weighted using the inverse of the estimated measurement variance. […] The relationships between change in log10 CFU/mL and percent time above avibactam concentration thresholds (Ct) ranging from 0.125 mg/L to 2 mg/L were also evaluated.

In data set [3] the test system is ESBL-positive isolates (n = 28). The data set is classed as cell-based, Enterobacteriaceae. The following applies: ESBL n = 28; avibactam or clavulanic acid fixed at 4 μg/mL in combinations.
The test system of data set [4] is OXA-positive isolates (n = 22). The data set is classed as cell-based, Enterobacteriaceae. The conditions noted are these: OXA n = 22; avibactam or clavulanic acid fixed at 4 μg/mL in combinations.
Data set [5] concerns 314 Enterobacteriaceae. The format is cell-based. The following applies: all isolates combined; avibactam at a fixed concentration of 4 μg/mL.
For data set [6], the system named is pAmpC (PlasAmpC) isolates (n = 20). The data set is classed as cell-based, Enterobacteriaceae. The following applies: pAmpC n = 20; avibactam or clavulanic acid fixed at 4 μg/mL in combinations.
Data set [7] has as its system KPC-positive isolates (n = 23). The data set is classed as cell-based, Enterobacteriaceae. The conditions noted are these: KPC n = 23; avibactam or clavulanic acid fixed at 4 μg/mL in combinations.
Data set [8] deals with K. pneumoniae 19701. Briefly: One-compartment in vitro infection (chemostat) model, K. pneumoniae 19701. The following applies: for Average Log10 CFU/mL (+/− Range of Data), 5 × Ceftibuten + Avibactam at 4 mg/L MIC: Ceftibuten 400 mg q8h. The format is cell-based, Klebsiella pneumoniae.
Data set [9] concerns E. cloacae 4184. Briefly: One-compartment in vitro infection (chemostat) model, E. cloacae 4184. The data set is classed as cell-based, Enterobacter cloacae. The following applies: for Average Log10 CFU/mL (+/− Range of Data), 5 × Ceftibuten + Avibactam at 4 mg/L MIC: Ceftibuten 400 mg q8h.
Data set [10] has as its system E. coli 136-4643. Briefly: One-compartment in vitro infection (chemostat) model, E. coli 136-4643. The data set is classed as cell-based, Escherichia coli. The following applies: E. coli 4643; for Average Log10 CFU/mL (+/− Range of Data), 5 × Ceftibuten + Avibactam at 4 mg/L MIC: Ceftibuten 400 mg q8h.
In data set [11] the test system is ESBL-, KPC-, and OXA-positive isolates. The data set is classed as cell-based, Enterobacteriaceae. The conditions noted are these: avibactam 4 μg/mL.
[12] abbreviates: MIC determined using 4 mg/L of avibactam.
Setting [13] is: MIC determined using 8 mg/L of avibactam.
[14] abbreviates: MIC determined using a 1:1 ratio of ceftibuten:avibactam.
The mark [15] stands for this setting: ceftibuten 200 mg q8h monotherapy.
Setting [16] is: ceftibuten 400 mg q8h monotherapy.

SMILES strings stand for the structures. Structures can show the parent of a compound that is named as a salt. Some results are limits rather than exact numbers.

Regarding `NC(=O)[C@@H]1CC[C@@H]2CN1C(=O)N2OS(=O)(=O)O` [avibactam, [2S,5R]-2-carbamoyl-7-oxo-1,6-diazabicyclo[3.2.1]octan-6-yl hydrogen sulfate], the “avibactam oral bioavailability (% F)” value in data set [1] is 1.2 % F. Besides, in data set [2] (Ct 0.5 mg/L of avibactam), the “Avibactam free-drug plasma % T > Concentration threshold value, target 1-log” value amounted to 97.6%; the “Avibactam free-drug plasma % T > Concentration threshold value, target 2-log” value turned out to be 98.2%; the “Avibactam free-drug plasma % T > Concentration threshold value, target Stasis” value came to 96.9%. Moreover, in data set [2] (Ct 1 mg/L of avibactam), the “Avibactam free-drug plasma % T > Concentration threshold value, target 1-log” value amounted to 85.2%; the “Avibactam free-drug plasma % T > Concentration threshold value, target 2-log” value came to 93.6%; the “Avibactam free-drug plasma % T > Concentration threshold value, target Stasis” value amounted to 76.0%. Moreover, in data set [2] (setting [12]), the “Avibactam free-drug plasma % T > MIC value, target 1-log” value was 58.0%; the “Avibactam free-drug plasma % T > MIC value, target 2-log” value is listed as 66.3%; the “Avibactam free-drug plasma % T > MIC value, target Stasis” value worked out at 53.2%; the “Avibactam free-drug plasma AUC:MIC value, target 1-log” value came out at 30.8. Moreover, in [2] (setting [12]), the “Avibactam free-drug plasma AUC:MIC value, target 2-log” value was determined as 34.2 and the “Avibactam free-drug plasma AUC:MIC value, target Stasis” value is recorded as 28.7. In data set [2] (setting [13]), the “Avibactam free-drug plasma % T > MIC value, target 1-log” value is 79.4%; the “Avibactam free-drug plasma % T > MIC value, target 2-log” value worked out at 80.4%; the “Avibactam free-drug plasma % T > MIC value, target Stasis” value was determined as 78.7%; the “Avibactam free-drug plasma AUC:MIC value, target 1-log” value is 67.0. In data set [2] (setting [13]), the “Avibactam free-drug plasma AUC:MIC value, target 2-log” value was 128 and the “Avibactam free-drug plasma AUC:MIC value, target Stasis” value is on record as 38.0. In addition, in [2] (setting [14]), the “Avibactam free-drug plasma % T > MIC value, target 1-log” value was found to be 11.1%; the “Avibactam free-drug plasma % T > MIC value, target 2-log” value is 22.7%; the “Avibactam free-drug plasma % T > MIC value, target Stasis” value worked out at 6.8%; the “Avibactam free-drug plasma AUC:MIC value, target 1-log” value turned out to be 15.4. In [2] (setting [14]), the “Avibactam free-drug plasma AUC:MIC value, target 2-log” value turned out to be 17.1 and the “Avibactam free-drug plasma AUC:MIC value, target Stasis” value came to 14.4.
For the compound `Nc1nc(/C(=C/CC(=O)O)C(=O)N[C@@H]2C(=O)N3C(C(=O)O)=CCS[C@H]23)cs1` [ceftibuten, (6R,7R)-7-((Z)-2-(2-amino-4-thiazolyl)-4-carboxycrotonamido)-8-oxo-5-thia-1-azabicyclo(4.2.0)oct-2-ene-2-carboxylic acid], the “Estimated MIC90” value in [3], in [4], in data set [6] and in data set [7] was greater than 32 µg/mL each time. Besides, the “MIC90 with addition of avibactam” value in data set [5] turned out to be 0.5 µg/mL. The “Average Log10 CFU/mL (+/− Range of Data), 5 × Ceftibuten + Avibactam at 4 mg/L MIC” value in data set [8] (0 h) is on record as 0 (0) Log10 CFU/mL; in [8] (24 h) it was 1.67 (1.17) Log10 CFU/mL; in data set [9] (0 h), 0.99 (0.31) Log10 CFU/mL; in [9] (24 h), 1.68 (0.20) Log10 CFU/mL; in data set [10] (0 h) it was 0 (0) Log10 CFU/mL; in data set [10] (24 h), 0 (0) Log10 CFU/mL. Further, the “bacterial burden response over 24 hours” value was “no activity” in [8] (setting [15]); “did not reduce the bacterial burden” in data set [8] (setting [16]); “no activity” in data set [9] (setting [15]); “did not reduce the bacterial burden” in data set [9] (setting [16]); “slight initial reduction in bacterial burden” in data set [10] (ceftibuten 400 mg q8h monotherapy, first 4 hours, regrowth matching control by 12 hours). In data set [11], the “reduction of MIC90 values by addition of avibactam” value is reported as “at least five doubling dilutions”.
